Assay results reported in ChEMBL document CHEMBL1287687, “5-benzyloxytryptamine as an antagonist of TRPM8” (Bioorg Med Chem Lett, 2010).
The source made the active and inactive calls. The rule behind the calls is not given here.

Assays:
[1] = biological target: T1, Transient receptor potential cation channel subfamily M member 8 (Homo sapiens, UniProt Q7Z2W7); test: Antagonist activity at human TRPM8 receptor expressed in human T-REx-293 cells assessed as inhibition of icilin-induced 45calcium influx treated 5 mins before icilin challenge measured after 5 mins; assay type: functional, cell-based, HEK293
Target sequence in this assay (Q7Z2W7 whole entry): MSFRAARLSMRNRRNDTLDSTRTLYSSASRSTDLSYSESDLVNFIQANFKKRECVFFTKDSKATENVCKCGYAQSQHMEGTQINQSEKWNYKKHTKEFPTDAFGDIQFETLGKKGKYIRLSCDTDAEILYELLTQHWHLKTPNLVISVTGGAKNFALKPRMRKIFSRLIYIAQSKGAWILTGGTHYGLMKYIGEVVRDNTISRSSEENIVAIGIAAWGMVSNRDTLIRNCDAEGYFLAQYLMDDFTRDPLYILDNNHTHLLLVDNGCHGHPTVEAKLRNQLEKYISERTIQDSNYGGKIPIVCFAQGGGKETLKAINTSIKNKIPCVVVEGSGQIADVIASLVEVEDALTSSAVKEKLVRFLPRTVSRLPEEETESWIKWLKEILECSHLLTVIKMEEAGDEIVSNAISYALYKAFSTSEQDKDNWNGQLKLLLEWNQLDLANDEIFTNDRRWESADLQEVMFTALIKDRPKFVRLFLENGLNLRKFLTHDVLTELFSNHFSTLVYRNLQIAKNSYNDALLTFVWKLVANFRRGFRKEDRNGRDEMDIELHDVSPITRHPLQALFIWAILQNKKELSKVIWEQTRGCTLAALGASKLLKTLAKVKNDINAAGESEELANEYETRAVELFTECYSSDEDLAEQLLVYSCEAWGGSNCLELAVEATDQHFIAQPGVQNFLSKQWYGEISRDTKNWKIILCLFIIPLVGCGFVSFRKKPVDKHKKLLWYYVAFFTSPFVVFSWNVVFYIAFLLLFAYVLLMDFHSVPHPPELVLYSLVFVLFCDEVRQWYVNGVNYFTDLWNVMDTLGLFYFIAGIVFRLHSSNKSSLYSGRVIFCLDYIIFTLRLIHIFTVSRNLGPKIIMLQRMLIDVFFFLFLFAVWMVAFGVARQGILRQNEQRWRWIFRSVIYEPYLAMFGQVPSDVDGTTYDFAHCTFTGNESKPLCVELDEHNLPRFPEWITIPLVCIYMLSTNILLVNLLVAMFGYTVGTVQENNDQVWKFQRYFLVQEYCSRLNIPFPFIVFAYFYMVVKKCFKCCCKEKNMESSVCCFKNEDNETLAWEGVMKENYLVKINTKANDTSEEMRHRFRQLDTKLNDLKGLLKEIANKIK

[2] = biological target: T1, Transient receptor potential cation channel subfamily M member 8; test: Antagonist activity at human TRPM8 receptor expressed in human T-REx-293 cells assessed as inhibition of menthol-induced 45calcium influx treated 5 mins before menthol challenge measured after 5 mins; assay type: functional, cell-based, HEK293
Target sequence in this assay (Q7Z2W7 whole entry): as above

[3] = biological target: T1, Transient receptor potential cation channel subfamily M member 8; conditions: HEK293, 1 uM
Target sequence in this assay (Q7Z2W7 whole entry, looked up): as the sequence (Q7Z2W7 whole entry) above
Description: Antagonist activity at human TRPM8 receptor expressed in HEK cells assessed as inhibition of WS-12-stimulated current at 1 uM pretreated for 2 mins by patch clamp assay

[4] = biological target: Transient receptor potential cation channel subfamily A member 1 (Homo sapiens) (UniProt O75762); test: Inhibition of TRPA1 receptor up to 10 uM
Chain of Transient receptor potential cation channel subfamily A member 1 (Homo sapiens) (O75762 whole entry): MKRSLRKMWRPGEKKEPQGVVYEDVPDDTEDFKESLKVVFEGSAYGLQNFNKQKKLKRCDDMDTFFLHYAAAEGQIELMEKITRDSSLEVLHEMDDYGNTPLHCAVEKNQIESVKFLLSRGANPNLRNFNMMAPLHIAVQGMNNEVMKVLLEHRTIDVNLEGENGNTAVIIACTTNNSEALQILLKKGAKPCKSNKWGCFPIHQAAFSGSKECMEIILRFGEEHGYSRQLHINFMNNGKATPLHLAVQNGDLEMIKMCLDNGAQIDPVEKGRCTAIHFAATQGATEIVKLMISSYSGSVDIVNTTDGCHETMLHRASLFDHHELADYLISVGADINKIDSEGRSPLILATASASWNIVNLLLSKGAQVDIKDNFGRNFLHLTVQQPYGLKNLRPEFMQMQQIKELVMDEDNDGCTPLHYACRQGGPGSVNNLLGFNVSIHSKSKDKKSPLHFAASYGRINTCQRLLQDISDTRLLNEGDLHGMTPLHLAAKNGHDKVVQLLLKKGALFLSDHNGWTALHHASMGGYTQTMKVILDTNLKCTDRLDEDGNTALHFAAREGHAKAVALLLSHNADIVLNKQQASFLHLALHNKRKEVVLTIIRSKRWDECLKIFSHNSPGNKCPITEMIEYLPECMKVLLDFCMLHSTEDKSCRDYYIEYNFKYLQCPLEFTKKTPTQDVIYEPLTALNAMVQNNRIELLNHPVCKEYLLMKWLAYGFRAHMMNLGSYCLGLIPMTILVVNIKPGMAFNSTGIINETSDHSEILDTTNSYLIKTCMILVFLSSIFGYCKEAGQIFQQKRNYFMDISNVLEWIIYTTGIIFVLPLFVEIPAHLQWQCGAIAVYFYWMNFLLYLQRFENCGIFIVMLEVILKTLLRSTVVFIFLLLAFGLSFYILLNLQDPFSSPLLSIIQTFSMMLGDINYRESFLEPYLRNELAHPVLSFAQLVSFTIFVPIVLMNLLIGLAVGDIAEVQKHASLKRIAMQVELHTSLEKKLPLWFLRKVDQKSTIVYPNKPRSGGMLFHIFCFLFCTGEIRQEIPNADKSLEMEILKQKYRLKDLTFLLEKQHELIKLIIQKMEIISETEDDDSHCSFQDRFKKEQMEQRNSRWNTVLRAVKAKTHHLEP

[5] = biological target: Transient receptor potential cation channel subfamily V member 4 (Homo sapiens) (UniProt Q9HBA0); test: Inhibition of TRPV4 receptor up to 10 uM
Chain of Transient receptor potential cation channel subfamily V member 4 (Homo sapiens) (Q9HBA0 whole entry): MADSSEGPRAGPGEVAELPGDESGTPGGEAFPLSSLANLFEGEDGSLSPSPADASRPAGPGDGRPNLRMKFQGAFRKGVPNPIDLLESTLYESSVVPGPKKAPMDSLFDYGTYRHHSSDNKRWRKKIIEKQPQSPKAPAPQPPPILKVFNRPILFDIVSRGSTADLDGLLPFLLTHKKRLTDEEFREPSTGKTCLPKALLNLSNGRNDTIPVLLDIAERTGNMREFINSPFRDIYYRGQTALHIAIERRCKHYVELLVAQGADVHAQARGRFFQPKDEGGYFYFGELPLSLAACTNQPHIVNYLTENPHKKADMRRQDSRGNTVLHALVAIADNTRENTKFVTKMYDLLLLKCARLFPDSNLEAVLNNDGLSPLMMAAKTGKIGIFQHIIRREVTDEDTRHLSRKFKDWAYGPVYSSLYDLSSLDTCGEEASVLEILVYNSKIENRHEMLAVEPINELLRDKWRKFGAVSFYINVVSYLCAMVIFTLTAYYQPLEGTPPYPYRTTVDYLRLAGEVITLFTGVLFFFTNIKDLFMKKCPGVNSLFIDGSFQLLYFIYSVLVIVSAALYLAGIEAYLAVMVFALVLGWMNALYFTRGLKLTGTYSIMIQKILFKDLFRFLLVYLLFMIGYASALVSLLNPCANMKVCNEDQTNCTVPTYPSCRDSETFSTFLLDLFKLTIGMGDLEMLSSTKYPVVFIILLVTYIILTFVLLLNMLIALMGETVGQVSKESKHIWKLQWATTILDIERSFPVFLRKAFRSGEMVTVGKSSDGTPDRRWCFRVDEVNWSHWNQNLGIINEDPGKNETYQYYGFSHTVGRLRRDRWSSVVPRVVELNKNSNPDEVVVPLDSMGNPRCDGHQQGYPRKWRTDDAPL

[6] = biological target: Transient receptor potential cation channel subfamily V member 1 (Homo sapiens) (UniProt Q8NER1); test: Inhibition of TRPV1 receptor up to 10 uM
Chain of Transient receptor potential cation channel subfamily V member 1 (Homo sapiens) (Q8NER1 whole entry): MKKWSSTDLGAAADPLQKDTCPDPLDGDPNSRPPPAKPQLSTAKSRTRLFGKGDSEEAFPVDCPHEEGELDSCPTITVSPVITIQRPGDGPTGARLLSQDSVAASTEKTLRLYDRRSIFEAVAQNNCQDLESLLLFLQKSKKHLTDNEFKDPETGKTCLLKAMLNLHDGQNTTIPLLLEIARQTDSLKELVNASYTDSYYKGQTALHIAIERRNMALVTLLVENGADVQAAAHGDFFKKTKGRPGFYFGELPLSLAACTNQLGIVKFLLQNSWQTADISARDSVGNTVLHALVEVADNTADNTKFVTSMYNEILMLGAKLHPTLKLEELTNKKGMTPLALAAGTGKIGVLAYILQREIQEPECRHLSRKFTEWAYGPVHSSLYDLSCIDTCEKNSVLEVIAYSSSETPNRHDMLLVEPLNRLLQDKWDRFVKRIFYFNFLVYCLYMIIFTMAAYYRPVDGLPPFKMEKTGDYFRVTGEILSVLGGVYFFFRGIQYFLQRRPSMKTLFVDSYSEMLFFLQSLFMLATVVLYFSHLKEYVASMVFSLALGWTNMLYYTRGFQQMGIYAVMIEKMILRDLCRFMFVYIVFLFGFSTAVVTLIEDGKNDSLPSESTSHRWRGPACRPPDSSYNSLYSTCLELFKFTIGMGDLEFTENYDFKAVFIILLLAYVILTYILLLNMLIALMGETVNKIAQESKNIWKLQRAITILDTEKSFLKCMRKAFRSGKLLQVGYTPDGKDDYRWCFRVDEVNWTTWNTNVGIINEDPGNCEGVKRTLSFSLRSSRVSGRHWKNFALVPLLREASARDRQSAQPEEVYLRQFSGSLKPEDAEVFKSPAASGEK

[7] = biological target: T1, Transient receptor potential cation channel subfamily M member 8; test: Antagonist activity at human TRPM8 receptor expressed in HEK cells assessed as inhibition of WS-12-stimulated current at 100 uM pretreated for 2 mins by patch clamp assay; assay type: functional, cell-based; conditions: HEK293
Target sequence in this assay (Q7Z2W7 whole entry, looked up): as the sequence (Q7Z2W7 whole entry) above

Compound	IC50 [1] [µM]	IC50 ([2]; read-out: IC50) [µM]	other results
NCCc1c[nH]c2ccc(Cl)cc12	32.2	21.5	
N#CCc1c[nH]c2ccc(OCc3ccccc3)cc12			IC50 ([2]; hek293): Not Active
c1ccc(COc2ccc3[nH]ccc3c2)cc1			IC50 ([2]; hek293): Not Active
NCCc1c[nH]c2c(OCc3ccccc3)cccc12	8.93	3.34	
NCCc1c[nH]c2ccc(OCc3ccccc3)cc12 [5-BENZYLOXYTRYPTAMINE]	0.66	0.34	inhibition [3]: Active; inhibition [4]: inactive; inhibition [5]: inactive; inhibition [6]: inactive
CN(C)CCc1c[nH]c2ccc(OCc3ccccc3)cc12	5.96	5.63	
Cc1[nH]c2ccc(OCc3ccccc3)cc2c1CCN	2.36	1.5	
NCCc1c[nH]c2ccc(O)cc12			inhibition [7]: inactive
NCCc1c[nH]c2ccc(F)cc12	13.1	12.3	
NCCc1c[nH]c2ccc(Br)cc12	30.4	22.7	
COc1ccc2[nH]cc(CCN)c2c1 [5-METHOXYTRYPTAMINE]	11.6	12.4	
CCOC(=O)NCCc1c[nH]c2ccc(OCc3ccccc3)cc12	28.8	21.6	
